The values that follow come from PubChem BioAssay AID280 (DTP/NCI, 2004).

The experiment has as its system nude mice, LOX melanoma ip, survival T/C. The experiment in a line: NCI In Vivo Anticancer Drug Screen. Data for tumor model Human Amelanotic Melanoma (LOX) (intraperitoneal) in NU/NU BALB/C (nude) mice. The settings on record: endpoint: median survival time, higher = longer survival. As for the experimental part:
The antitumor activity of compounds was measured in mice bearing transplantable tumors. Survival or tumor size were measured and the results are expressed as the measurement made in the treated group (T) divided by the measurement made in the vehicle treated control group (C). The tumor model used in this assay is Human Amelanotic Melanoma (LOX) (intraperitoneal) in NU/NU BALB/C (nude) mice

The mark [1] stands for this setting: dose: 12.5 mg/kg/injection, schedule: Q04DX003 (ip), vehicle: DMSO.
The mark [2] stands for this setting: dose: 25.0 mg/kg/injection, schedule: Q04DX003 (ip), vehicle: DMSO.
The mark [3] stands for this setting: dose: 50.0 mg/kg/injection, schedule: Q04DX003 (ip), vehicle: DMSO.
Setting [4] is: dose: 25.0 mg/kg/injection, schedule: Q04DX003 (ip), vehicle: water.
Setting [5] is: dose: 50.0 mg/kg/injection, schedule: Q04DX003 (ip), vehicle: water.
Setting [6] is: dose: 100.0 mg/kg/injection, schedule: Q04DX003 (ip), vehicle: water.
[7] abbreviates: dose: 50.0 mg/kg/injection, schedule: Q04DX003 (ip), vehicle: Klucel (hydroxypropylcellulose) (HPC).
Where [8] appears, read: dose: 100.0 mg/kg/injection, schedule: Q04DX003 (ip), vehicle: Klucel (hydroxypropylcellulose) (HPC).
Setting [9] is: dose: 200.0 mg/kg/injection, schedule: Q04DX003 (ip), vehicle: Klucel (hydroxypropylcellulose) (HPC).

“And” between values parts separate entries of the source, which are not always exact repeats. Equal values may be shown once. Inconclusive results and toxic doses are left out.

Turning to `c1ccc2[nH]c(CN(CCN(Cc3nc4ccccc4[nH]3)Cc3nc4ccccc4[nH]3)Cc3nc4ccccc4[nH]3)nc2c1`, the T/C by setting is: (dose: 6.25 mg/kg/injection, schedule: Q04DX003 (ip), vehicle: DMSO) 102 % of control; under setting [1], 110 % of control; under setting [2], 113 % of control; under setting [3], 111 % of control.
Consider `Cc1c(O)/c(=C\O)c2nc3c(=O)ccc(C(=O)NCCN(C)C)c3[nH]c2c1=O`, for which the T/C is, setting by setting: under setting [4], 95 % of control and 97 % of control; under setting [5], 104 % of control and 98 % of control; (dose: 86.4 mg/kg/injection, schedule: Q04DX003 (ip), vehicle: water) 95 % of control; under setting [6], 101 % of control and 104 % of control; (dose: 144.0 mg/kg/injection, schedule: Q04DX003 (ip), vehicle: water) 99 % of control.
For `COc1ccc2[nH]c3ccc4cc[n+](CCN5CCC(C6CCN(CC[n+]7ccc8ccc9[nH]c%10ccc(OC)cc%10c9c8c7)CC6)CC5)cc4c3c2c1`, the T/C was 153 % of control (dose: 4.0 mg/kg/injection, schedule: Q04DX003 (ip), vehicle: water); 156 % of control (dose: 13.7 mg/kg/injection, schedule: Q04DX003 (ip), vehicle: water); 176 % of control (dose: 16.0 mg/kg/injection, schedule: Q04DX003 (ip), vehicle: water); 176 % of control (dose: 22.8 mg/kg/injection, schedule: Q04DX003 (ip), vehicle: water); 203 % of control (dose: 23.04 mg/kg/injection, schedule: Q04DX003 (ip), vehicle: water); 187 % of control (dose: 32.0 mg/kg/injection, schedule: Q04DX003 (ip), vehicle: water). In addition, the T/C (dose: 38.0 mg/kg/injection, schedule: Q04DX003 (ip), vehicle: water) was 207 % of control; the T/C (dose: 38.4 mg/kg/injection, schedule: Q04DX003 (ip), vehicle: water) is 223 % of control; the T/C (dose: 64.0 mg/kg/injection, schedule: Q04DX003 (ip), vehicle: water) is 192 % of control.
For `CN(C)N=Nc1ccc(C(N)=O)cc1`, the T/C was 99 % of control (dose: 22.5 mg/kg/injection, schedule: Q04DX003 (ip), vehicle: saline with Tween-80); 120 % of control (dose: 45.0 mg/kg/injection, schedule: Q04DX003 (ip), vehicle: saline with Tween-80); 153 % of control (dose: 180.0 mg/kg/injection, schedule: Q04DX003 (ip), vehicle: saline with Tween-80); 210 % of control (dose: 360.0 mg/kg/injection, schedule: Q04DX003 (ip), vehicle: saline with Tween-80).
For the molecule `CO[C@@]12[C@@H]3N[C@@H]3CN1C1=C(C(=O)C(NCCc3ccccn3)=C(C)C1=O)[C@@H]2COC(N)=O`, the T/C is, setting by setting: (dose: 1.5 mg/kg/injection, schedule: Q04DX003 (ip), vehicle: saline with Tween-80) 187 % of control; (dose: 3.12 mg/kg/injection, schedule: Q04DX003 (ip), vehicle: saline with Tween-80) 192 % of control; (dose: 3.13 mg/kg/injection, schedule: Q04DX003 (ip), vehicle: saline with Tween-80) 159 % of control; (dose: 6.25 mg/kg/injection, schedule: Q04DX003 (ip), vehicle: saline with Tween-80) 179 % of control and 198 % of control; (dose: 12.5 mg/kg/injection, schedule: Q04DX003 (ip), vehicle: saline with Tween-80) 317 % of control and 340 % of control; (dose: 25.0 mg/kg/injection, schedule: Q04DX003 (ip), vehicle: saline with Tween-80) 317 % of control and 340 % of control.
With `CNC(=S)SC1=NS(=O)(=O)c2ccccc2N1`, the T/C was 100 % of control under setting [7], 104 % of control under setting [8] and 104 % of control under setting [9].
For the molecule `O=C1C=CC2OC(c3ccccc3)C(O)C2O1` (stereo not drawn), the T/C under setting [1] was 105 % of control, the T/C under setting [2] is 103 % of control and the T/C under setting [3] was 103 % of control.
Consider `CN(C)CN1C(=O)S/C(=C2\C(=O)N(CN(C)C)c3ccccc32)C1=O`, for which the T/C reads like this: under setting [7], 119 % of control and 101 % of control; under setting [8], 110 % of control and 97 % of control; under setting [9], 108 % of control and 97 % of control.
In the case of `COc1cc2cc(c1Cl)N(C)C(=O)C[C@H](OC(=O)[C@H](C)N(C)C(C)=O)[C@]1(C)O[C@H]1[C@H](C)[C@@H]1C[C@@](O)(NC(=O)O1)[C@H](OC)C=C/C=C(\C)C2`, the T/C (dose: 0.07 mg/kg/injection, schedule: Q04DX003 (ip), vehicle: Klucel (hydroxypropylcellulose) (HPC)) is 304 % of control; the T/C (dose: 0.12 mg/kg/injection, schedule: Q04DX003 (ip), vehicle: Klucel (hydroxypropylcellulose) (HPC)) is 304 % of control; the T/C (dose: 0.2 mg/kg/injection, schedule: Q04DX003 (ip), vehicle: Klucel (hydroxypropylcellulose) (HPC)) is 304 % of control and 323 % of control; the T/C (dose: 0.33 mg/kg/injection, schedule: Q04DX003 (ip), vehicle: Klucel (hydroxypropylcellulose) (HPC)) was 304 % of control; the T/C (dose: 0.4 mg/kg/injection, schedule: Q04DX003 (ip), vehicle: Klucel (hydroxypropylcellulose) (HPC)) is 95 % of control; the T/C (dose: 0.56 mg/kg/injection, schedule: Q04DX003 (ip), vehicle: Klucel (hydroxypropylcellulose) (HPC)) was 304 % of control.
Turning to `O=S(=O)(c1cccc(N=C=S)c1)c1cccc(N=C=S)c1`, the T/C by setting is: (dose: 15.0 mg/kg/injection, schedule: Q04DX003 (ip), vehicle: Klucel (hydroxypropylcellulose) (HPC)) 91 % of control; (dose: 30.0 mg/kg/injection, schedule: Q04DX003 (ip), vehicle: Klucel (hydroxypropylcellulose) (HPC)) 95 % of control; (dose: 60.0 mg/kg/injection, schedule: Q04DX003 (ip), vehicle: Klucel (hydroxypropylcellulose) (HPC)) 107 % of control; (dose: 120.0 mg/kg/injection, schedule: Q04DX003 (ip), vehicle: Klucel (hydroxypropylcellulose) (HPC)) 109 % of control.
On to `O=NNc1cccnc1`, for which the T/C runs as follows: (dose: 6.25 mg/kg/injection, schedule: Q04DX003 (ip), vehicle: water) 100 % of control and 101 % of control; (dose: 12.5 mg/kg/injection, schedule: Q04DX003 (ip), vehicle: water) 109 % of control and 101 % of control; under setting [4], 113 % of control and 98 % of control; under setting [5], 114 % of control and 96 % of control; under setting [6], 103 % of control and 117 % of control.
As to `CCOC(=O)C1=C(Nc2ccc(OC)cc2)C(N)=NC1=N`, the T/C runs as follows: (dose: 50.0 mg/kg/injection, schedule: Q04DX003 (ip), vehicle: suspension in saline) 107 % of control; (dose: 100.0 mg/kg/injection, schedule: Q04DX003 (ip), vehicle: suspension in saline) 107 % of control.
For `CO[C@H](/C(C)=C/C=C/C(C)=C/c1coc(C)n1)[C@H](C)[C@H]1C[C@@H](O)[C@@]2(C)O[C@H]2/C=C/[C@@H](C)[C@@H]2C[C@@H](CC(=O)O2)C[C@H]2O[C@@H]2C(=O)O1`, the T/C is, setting by setting: (dose: 0.09 mg/kg/injection, schedule: Q01DX009 (ip), vehicle: other) 176 % of control; (dose: 0.12 mg/kg/injection, schedule: Q04DX003 (ip), vehicle: other) 121 % of control; (dose: 0.13 mg/kg/injection, schedule: Q01DX009 (ip), vehicle: other) 180 % of control; (dose: 0.2 mg/kg/injection, schedule: Q01DX009 (ip), vehicle: other) 175 % of control; (dose: 0.2 mg/kg/injection, schedule: Q04DX003 (ip), vehicle: other) 108 % of control; (dose: 0.3 mg/kg/injection, schedule: Q01DX009 (ip), vehicle: other) 152 % of control and 196 % of control. For the same molecule, the T/C (dose: 0.44 mg/kg/injection, schedule: Q01DX009 (ip), vehicle: other) is 162 % of control; the T/C (dose: 0.55 mg/kg/injection, schedule: Q04DX003 (ip), vehicle: other) was 122 % of control; the T/C (dose: 0.66 mg/kg/injection, schedule: Q01DX009 (ip), vehicle: other) was 93 % of control.
On to `COc1ccc2oc(-c3ccc(Cl)cc3)c(N3CCN(C)CC3)c2c1`, for which the T/C runs as follows: (dose: 75.0 mg/kg/injection, schedule: Q04DX003 (ip), vehicle: saline) 91 % of control; (dose: 150.0 mg/kg/injection, schedule: Q04DX003 (ip), vehicle: saline) 118 % of control; (dose: 300.0 mg/kg/injection, schedule: Q04DX003 (ip), vehicle: saline) 90 % of control.
On to `O=C1c2cccc(NCCNCCO)c2C(=O)c2cccc(NCCNCCO)c21`, for which the T/C runs as follows: (dose: 4.69 mg/kg/injection, schedule: Q04DX003 (ip), vehicle: suspension in saline) 122 % of control; (dose: 9.38 mg/kg/injection, schedule: Q04DX003 (ip), vehicle: suspension in saline) 120 % of control.
